The text below walks through data of patent publication US12655150B2 (Cedilla Therapeutics, Inc., priority 2021, dated 2026).

The GI50 is the concentration at which growth is held to half of that of the control.

In this test the test system is NCI-H226. Description: 72H TEAD Proliferation Assay (Cell Titer Glo 2.0). The test is classed as cell-based. The settings on record: Homo sapiens, NCI-H226, 72 h, CTG 2.0, cell line not given (NCI-H226 responsive, NCI-H28 non-responsive). A digest of the protocol: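 Growth read-out is ATP luminescence (CellTiter-Glo 2.0) after 72 h compound exposure, corrected for no-CTG background and day-0 values, with GI50 from nonlinear regression. Sensitive line NCI-H226 (NF2-deficient); non-responsive NCI-H28 (NF2 wild type) distinguishes TEAD-driven from nonspecific growth inhibition.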
In general terms: Cellular ATP, detected with luciferase, serves as a proxy for viable cell number.
With `C=CC(=O)NCc1cc2ccc(F)cc2c(-c2ccc(C(F)(F)F)cc2)n1` [I-295, N-((7-fluoro-1-(4-(trifluoromethyl)phenyl)isoquinolin-3-yl)methyl)acrylamide], the concentration for 50% growth inhibition (GI50) is ≤ 1000 nM.

`CC(C)(C)c1ccc(-c2nc(/C=C/C(=O)O)cn3ccnc23)cc1` [I-152, (E)-3-(8-(4-(tert-butyl)phenyl)imidazo[1,2-a]pyrazin-6-yl)acrylic acid] yielded a GI50 of 1000 to 5000 nM.

The compound `Cc1cc(-c2ccc(C(F)(F)F)cc2)nc2cc(C(=O)N[C@@H](C)COC(F)(F)F)ccc12` [I-264, (S)-4-methyl-N-(1-(trifluoromethoxy)propan-2-yl)-2-(4-(trifluoromethyl)phenyl)quinoline-7-carboxamide] returned a GI50 of 1000 to 5000 nM. For the compound `CN(C#N)Cc1cn2ccnc2c(-c2ccc(C(F)(F)F)cc2)n1` [I-239, N-methyl-N-((8-(4-(trifluoromethyl)phenyl)imidazo[1,2-a]pyrazin-6-yl)methyl)cyanamide], the GI50 fell in the range of 1000 to 5000 nM. Then `C=CC(=O)NCc1nc(-c2ccc(OC(F)(F)F)cc2)c2ccc(F)cc2n1` [I-447, N-((7-fluoro-4-(4-(trifluoromethoxy)phenyl)quinazolin-2-yl)methyl)acrylamide], with ≤ 1000 nM; and `CC(C)(C)c1ccc(-c2nc3cc(C(=O)O)ccc3n3nccc23)cc1` [I-117, 4-(4-(tert-Butyl)phenyl)pyrazolo[1,5-a]quinoxaline-7-carboxylic acid], with 1000 to 5000 nM; and `C=CC(=O)NCc1nc(-c2ccc(C(F)(F)F)cc2)c2c(ccn2C)n1` [I-451, N-((5-methyl-4-(4-(trifluoromethyl)phenyl)-5H-pyrrolo[3,2-d]pyrimidin-2-yl)methyl)acrylamide], with ≤ 1000 nM. In the case of `COc1cc(-c2ccc(C(F)(F)F)cc2)nc2cc(C(=O)N[C@@H](C)CO)ccc12` [I-325, (S)—N-(1-hydroxypropan-2-yl)-4-methoxy-2-(4-(trifluoromethyl)phenyl)quinoline-7-carboxamide], the concentration for 50% growth inhibition (GI50) was ≤ 1000 nM. `CC(C)(C)c1ccc(-c2nc3cc(C(=O)O)ncc3n3cccc23)cc1` [I-282, 6-(4-(tert-butyl)phenyl)pyrido[4,3-e]pyrrolo[1,2-a]pyrazine-3-carboxylic acid] showed a GI50 of 1000 to 5000 nM.

`CC(C)(C)c1ccc(-c2nc3cc(S(C)(=O)=O)ccc3n3cccc23)cc1` [I-323, 4-(4-(tert-butyl)phenyl)-7-(methylsulfonyl)pyrrolo[1,2-a]quinoxaline] showed a GI50 of 1000 to 5000 nM. Next, `COc1cc(-c2ccc(C(F)(F)F)cn2)nc2cc(C(=O)O)ccc12` [I-361, 4-methoxy-2-(5-(trifluoromethyl)pyridin-2-yl)quinoline-7-carboxylic acid]: 1000 to 5000 nM. For the compound `C=CC(=O)Nc1cn2cccc2c(-c2ccc(C(F)(F)F)cc2)n1` [I-96, N-(1-(4-(trifluoromethyl)phenyl)pyrrolo[1,2-a]pyrazin-3-yl)acrylamide], the GI50 was ≤ 1000 nM.

Turning to `C=CC(=O)n1ccc2c(-c3ccc(C(C)(C)C)cc3)nccc21` [I-105, 1-(4-(4-(tert-Butyl)phenyl)-1H-pyrrolo[3,2-c]pyridin-1-yl)prop-2-en-1-one], the GI50 fell in the range of 1000 to 5000 nM. Next, `CC(C)(C)c1ccc(-c2nc3cc(C(=O)O)cc(F)c3n3ccnc23)cc1` [I-72, 4-(4-(tert-Butyl)phenyl)-9-fluoroimidazo[1,2-a]quinoxaline-7-carboxylic acid]: 5000 to 10000 nM; `O=C(O)c1ccc2c(c1)nc(-c1ccc(C3(C(F)(F)F)CC3)cc1)c1cccn12` [I-196, 4-(4-(1-(trifluoromethyl)cyclopropyl)phenyl)pyrrolo[1,2-a]quinoxaline-7-carboxylic acid]: 1000 to 5000 nM; `COCc1cc(-c2ccc(C(F)(F)F)cc2)nc2cc(C(=O)N[C@H](C)CO)ccc12` [I-271, (R)—N-(1-hydroxypropan-2-yl)-4-(methoxymethyl)-2-(4-(trifluoromethyl)phenyl)quinoline-7-carboxamide]: 1000 to 5000 nM. Next, `CN(C)CC(=O)Nc1ccc2c(c1)nc(-c1ccc(C(C)(C)C)cc1)c1cccn12` [I-205, N-(4-(4-(tert-butyl)phenyl)pyrrolo[1,2-a]quinoxalin-7-yl)-2-(dimethylamino)acetamide]: 1000 to 5000 nM; `Cc1cc2c(-c3ccc(C(F)(F)F)cn3)nc3cc(C(=O)O)ccc3n2c1` [I-405, 2-Methyl-4-(5-(trifluoromethyl)pyridin-2-yl)pyrrolo[1,2-a]quinoxaline-7-carboxylic acid]: ≤ 1000 nM. Then `O=C(O)c1ccc2c(c1)nc(NCCCC(F)(F)F)c1cccn12` [I-1, 4-((4,4,4-Trifluorobutyl)amino) pyrrolo[1,2-a]quinoxaline-7-carboxylic acid], with > 10000 nM. With `C=CC(=O)NCc1cn2ccnc2c(-c2ccc(SC(F)(F)F)cc2)n1` [I-448, N-((8-(4-((trifluoromethyl)thio)phenyl)imidazo[1,2-a]pyrazin-6-yl)methyl)acrylamide], the 50% growth inhibitory concentration (GI50) is ≤ 1000 nM. In turn, `O=C(O)c1ccc2c(c1)nc(N1CCC3(CC1)CC3)c1ncnn12` [I-285, 4-(6-azaspiro[2.5]octan-6-yl)-[1,2,4]triazolo[1,5-a]quinoxaline-7-carboxylic acid] came in with a 50% growth inhibitory concentration (GI50) of 1000 to 5000 nM.

With `O=C(O)c1ccc2c(c1)nc(OCc1cccc(C(F)(F)F)c1)c1cccn12` [I-131, 4-((3-(Trifluoromethyl)benzyl)oxy)pyrrolo[1,2-a]quinoxaline-7-carboxylic acid], the GI50 was > 10000 nM. Then `O=C(O)c1ccc2c(c1)nc(-c1ccc(C(F)(F)F)cc1)c1cc(OC(F)F)cn12` [I-275, 2-(difluoromethoxy)-4-(4-(trifluoromethyl)phenyl)pyrrolo[1,2-a]quinoxaline-7-carboxylic acid], with ≤ 1000 nM; and `O=C(O)c1ccc2c(c1)nc(N1CCC3(CCCC3)CC1)c1cccn12` [I-8, 4-(8-Azaspiro[4.5]decan-8-yl)pyrrolo[1,2-a]quinoxaline-7-carboxylic acid], with ≤ 1000 nM; and `O=C(O)c1ccc2c(c1)nc(N1CCC3(CCC3)C1)c1cccn12` [I-33, 4-(6-Azaspiro[3.4]octan-6-yl)pyrrolo[1,2-a]quinoxaline-7-carboxylic acid], with 5000 to 10000 nM. Next, `C=CC(=O)Nc1ccc2c(C)cc(-c3ccc(C(F)(F)F)cn3)nc2c1` [I-252, N-(4-methyl-2-(5-(trifluoromethyl)pyridin-2-yl)quinolin-7-yl)acrylamide]: ≤ 1000 nM; `C=CC(=O)NCc1cc2cccc(F)c2c(-c2ccc(C(F)(F)F)cc2)n1` [I-289, N-((8-fluoro-1-(4-(trifluoromethyl)phenyl)isoquinolin-3-yl)methyl)acrylamide]: ≤ 1000 nM; `Cc1cc2c(-c3ccc(C(F)(F)F)cc3)nc3cc(C(=O)O)ccc3n2c1` [I-404, 2-Methyl-4-(4-(trifluoromethyl)phenyl)pyrrolo[1,2-a]quinoxaline-7-carboxylic acid]: ≤ 1000 nM. Then `COc1cc(-c2ccc(C(F)(F)F)cc2)nc2cc(C(=O)N[C@@H](CO)C3CC3)ccc12` [I-344, (R)—N-(1-cyclopropyl-2-hydroxyethyl)-4-methoxy-2-(4-(trifluoromethyl)phenyl)quinoline-7-carboxamide], with ≤ 1000 nM; and `O=C(O)c1ccc2c(c1)nc(N1CCC3(CCCC3)CC1)c1nccn12` [I-57, 4-(8-Azaspiro[4.5]decan-8-yl)imidazo[1,2-a]quinoxaline-7-carboxylic acid], with > 10000 nM; and `CC[C@H](CO)NC(=O)c1ccc2c(OC)cc(-c3ccc(C(F)(F)F)cc3OC)nc2c1` [I-342, (R)—N-(1-hydroxybutan-2-yl)-4-methoxy-2-(2-methoxy-4-(trifluoromethyl)phenyl)quinoline-7-carboxamide], with 1000 to 5000 nM.

`C[C@H](CO)NC(=O)c1ccc2c(C3CC3)cc(-c3ccc(C(F)(F)F)cc3)nc2c1` [I-386, (R)-4-cyclopropyl-N-(1-hydroxypropan-2-yl)-2-(4-(trifluoromethyl)phenyl)quinoline-7-carboxamide]: the 50% growth inhibitory concentration (GI50) was ≤ 1000 nM. Next, `C=CC(=O)NCc1cn2c(F)ccc2c(-c2ccc(C(F)(F)F)cc2)n1` [I-318, N-((6-Fluoro-1-(4-(trifluoromethyl)phenyl)pyrrolo[1,2-a]pyrazin-3-yl)methyl)acrylamide]: ≤ 1000 nM; `O=C(O)c1ccc2c(c1)nc(N1CCC(F)(F)C1)c1cccn12` [I-11, 4-(3,3-Difluoropyrrolidin-1-yl)pyrrolo[1,2-a]quinoxaline-7-carboxylic acid]: > 10000 nM; `O=C(O)c1ccc2c(c1)nc(-c1ccncc1)c1cccn12` [I-47, 4-(Pyridin-4-yl)pyrrolo[1,2-a]quinoxaline-7-carboxylic acid]: > 10000 nM.

For `O=C(O)c1ccc2c(c1)nc(-c1ccc(F)cc1F)c1cccn12` [I-44, 4-(2,4-Difluorophenyl)pyrrolo[1,2-a]quinoxaline-7-carboxylic acid], the concentration for 50% growth inhibition (GI50) is > 10000 nM. `O=C(O)c1ccc2c(OC(F)F)cc(-c3ccc(C(F)(F)F)cc3)nc2c1` [I-331, 4-(Difluoromethoxy)-2-(4-(trifluoromethyl)phenyl)quinoline-7-carboxylic acid]: the concentration for 50% growth inhibition (GI50) is ≤ 1000 nM. Compound `C=CC(=O)NCc1nc(-c2ccc(C(F)(F)F)cc2)c2[nH]ccc2n1` [I-450, N-((4-(4-(trifluoromethyl)phenyl)-5H-pyrrolo[3,2-d]pyrimidin-2-yl)methyl)acrylamide] showed a concentration for 50% growth inhibition (GI50) of 5000 to 10000 nM. Then `C=CC(=O)NCc1cc2ccccc2c(-c2ccc(C(F)(F)F)cc2F)n1` [I-301, N-((1-(2-Fluoro-4-(trifluoromethyl)phenyl)isoquinolin-3-yl)methyl)acrylamide], with ≤ 1000 nM. Then `Cc1cc(-c2ccc(C(F)(F)F)cc2F)nc2cc(C(=O)O)ccc12` [I-87, 2-(2-Fluoro-4-(trifluoromethyl)phenyl)-4-methylquinoline-7-carboxylic acid], with ≤ 1000 nM; and `Cc1nc(-c2ccc(C(F)(F)F)cc2)nc2cc(C(=O)O)ccc12` [I-435, 4-methyl-2-(4-(trifluoromethyl)phenyl)quinazoline-7-carboxylic acid], with 1000 to 5000 nM.
